These results are taken from publication PMC7076358, “Absorption and Intestinal Metabolic Profile of Oleocanthal in Rats” (Pharmaceutics, 2020).

Data set [1] can be described thus: in situ single-pass intestinal perfusion with simultaneous luminal perfusate and mesenteric blood sampling. In kind it is in vivo, Sprague–Dawley rats.
Method: LEV was assayed at 3 mg/mL, according to its high dose strength, in 250 mL TM.
Single-pass intestinal perfusion was performed in anesthetized rats according to the method described by Brouwers et al. [15], with simultaneous sampling from the luminal perfusate and mesenteric blood.
Anaesthesia was induced by intraperitoneal injection of pentobarbital sodium (60 mg/kg BW). The rats were then placed on a homeothermic blanket to maintain the body temperature at 37 °C. First, under general anaesthesia, the left jugular vein was cannulated with a heparinised (50 IU/mL) 0.5 × 0.9 mm/20 G catheter (Cavafix® MT, Braun Medical S.A., Barcelona, Spain) for infusion of donor blood. Second, a midline abdominal incision was made to isolate approximately 10 cm of the ileum using the ileocecal junction as a point of reference. Two glass cannulas (o.d. 4 mm, i.d. 3 mm, Duran®, Vidrafoc, Barcelona, Spain) were inserted at the proximal and distal ends of the isolated segment. The segment was rinsed by injection TM to remove the content until the solution came out clear. Next, the inlet cannula was connected to polyethylene tubing (i.d. 3 mm), which aspirated the tested solution (OLC or LEV) using a peristaltic pump (Minipuls3, M312 model, Gilson, Le Bel, France). Finally, the mesenteric vein draining blood from the intestinal segment was cannulated by inserting approximately 1 cm of a catheter (BD Insyte-W 24GA 0.7 × 19 mm, Becton Dickinson, Sangüesa S.A., Cornellà de Llobregat, Spain). The cannula was secured with a knot and connected to a silicone tube (i.d. 0.64 mm; o.d. 1.19 mm, Freudenberg Medical Europe, VWR International Eurolab S.L., Llinars del Vallés, Spain) that allowed blood to flow into the heparinised tubes. Care was taken to handle the small intestine gently to maintain normal blood supply. […]
The experiments were carried out in a laboratory room with infrared light to avoid oxidation of OLC. […] At the end of the experiment, the animal was euthanised by injection of air into the jugular, and the length of the intestinal segment was measured. […]
The conditions of data set [2]: source not stated; cited from earlier work.
Details of data set [3]: method as in PMID 15760043, PMID 9068926. The settings on record: cited from earlier work.
A further data set concerns Caco-2 cell monolayers. On the set-up: method as in PMID 10745093. The settings on record: differentiated Caco-2 cell monolayers; cited from earlier work.
On the set-up of data set [4]: method as in PMID 11110859. The settings on record: rat intestine perfused, cited from earlier work.

Where two headings read alike, the source gives them in different places.

Broadly, the Papp is the rate of passage across a membrane or cell layer, normalised by area and donor concentration. A word on the logP: it is the decadic logarithm of the partition coefficient of the neutral form, usually between octanol and water. With `C/C=C(/C=O)[C@@H](CC=O)CC(=O)OCCc1ccc(O)cc1` [OLC, oleocanthal], in data set [1] (Sprague-Dawley, pH 7, rat ileum, disappearance from lumen, OLC 0.1 mg/mL, LEV 3 mg/mL, flow 1 mL/min, mean ± SD, n = 4, normalised to 10-cm segment, read-out: Peff (effective permeability coefficient)), the Peff at 60 min was found to be 22.3 ± 31.6 ×10⁻⁶ cm/s. Besides, the Papp at 60 min in data set [1] (Sprague-Dawley, rat, pH 7, rat ileum, appearance in mesenteric blood, OLC 0.1 mg/mL, LEV 3 mg/mL, mean ± SD, n = 4, normalised to 10-cm segment, read-out: Papp (apparent permeability coefficient)) stood at 4.12 ± 2.33 ×10⁻⁶ cm/s. The absorption in data set [1] (rat in situ intestinal perfusion, stated in conclusions) is reported as 16%. In data set [2], the logP is 1.15.
Consider `C[C@H]1COc2c(N3CCN(C)CC3)c(F)cc3c(=O)c(C(=O)O)cn1c23` [LEV, levofloxacin], for which the oral bioavailability in data set [3] is recorded as about 100%.
With `OCCc1ccc(O)c(O)c1` [hydroxytyrosol], in the data set with Caco-2 cell monolayers, the permeability was 12.4 ± 0.9 × 10^−6 cm/s.
Consider `C/C=C1/[C@H](O[C@@H]2O[C@H](CO)[C@@H](O)[C@H](O)[C@H]2O)OC=C(C(=O)OC)[C@H]1CC(=O)OCCc1ccc(O)c(O)c1` [oleuropein], for which the intestinal permeability coefficient in data set [4] (hypotonic conditions) was 5.92 ×10⁻⁶ cm/s; in data set [4] (iso-osmotic conditions), 1.47 ×10⁻⁶ cm/s.
